Columns and labels:
[1] = Cytotoxicity against human MRC5 cells assessed as reduction in cell viability incubated for 24 hrs by MTT assay; type: toxicity, cell-based
[2] = system: MCF7; assay: Cytotoxicity against human MCF7 cells assessed as reduction in cell viability incubated for 72 hrs by MTT assay; type: functional, cell-based; details: MCF7, 72 h
[3] = system: Caco-2; assay: Cytotoxicity against human Caco-2 cells assessed as reduction in cell viability incubated for 24 hrs by MTT assay; type: functional, cell-based; details: Caco-2, 24 h
[4] = system: MCF7; assay: Cytotoxicity against human MCF7 cells assessed as reduction in cell viability incubated for 24 hrs by MTT assay; type: functional, cell-based; details: MCF7, 24 h
[5] = system: HeLa; assay: Cytotoxicity against human HeLa cells assessed as reduction in cell viability incubated for 48 hrs by MTT assay; type: functional, cell-based
[6] = system: HeLa; assay: Cytotoxicity against human HeLa cells assessed as reduction in cell viability incubated for 24 hrs by MTT assay; type: functional, cell-based
[7] = system: MIA PaCa-2; assay: Cytotoxicity against human MIA PaCa-2 cells assessed as reduction in cell viability incubated for 48 hrs by MTT assay; type: functional, cell-based; details: MIA PaCa-2, 48 h
[8] = system: OVCAR-3; assay: Cytotoxicity against human OVCAR-3 cells assessed as reduction in cell viability incubated for 72 hrs by MTT assay; type: functional, cell-based; details: OVCAR-3, 72 h
[9] = system: HeLa; assay: Cytotoxicity against human HeLa cells assessed as reduction in cell viability incubated for 72 hrs by MTT assay; type: functional, cell-based
[10] = system: Caco-2; assay: Cytotoxicity against human Caco-2 cells assessed as reduction in cell viability incubated for 72 hrs by MTT assay; type: functional, cell-based; details: Caco-2, 72 h
[11] = system: MIA PaCa-2; assay: Cytotoxicity against human MIA PaCa-2 cells assessed as reduction in cell viability incubated for 24 hrs by MTT assay; type: functional, cell-based; details: MIA PaCa-2, 24 h
[12] = system: OVCAR-3; assay: Cytotoxicity against human OVCAR-3 cells assessed as reduction in cell viability incubated for 48 hrs by MTT assay; type: functional, cell-based; details: OVCAR-3, 48 h
[13] = system: MCF7; assay: Cytotoxicity against human MCF7 cells assessed as reduction in cell viability incubated for 48 hrs by MTT assay; type: functional, cell-based; details: MCF7, 48 h
[14] = Cytotoxicity against human MRC5 cells assessed as reduction in cell viability incubated for 48 hrs by MTT assay; type: toxicity, cell-based
[15] = system: OVCAR-3; assay: Cytotoxicity against human OVCAR-3 cells assessed as reduction in cell viability incubated for 24 hrs by MTT assay; type: functional, cell-based; details: OVCAR-3, 24 h
[16] = system: Caco-2; assay: Cytotoxicity against human Caco-2 cells assessed as reduction in cell viability incubated for 48 hrs by MTT assay; type: functional, cell-based; details: Caco-2, 48 h
[17] = Cytotoxicity against human MRC5 cells assessed as reduction in cell viability incubated for 72 hrs by MTT assay; type: toxicity, cell-based
[18] = system: MIA PaCa-2; assay: Cytotoxicity against human MIA PaCa-2 cells assessed as reduction in cell viability incubated for 72 hrs by MTT assay; type: functional, cell-based; details: MIA PaCa-2, 72 h
[19] = system: MIA PaCa-2; assay: Cytotoxicity against human MIA PaCa-2 cells assessed as reduction in cell viability at 100 uM incubated for 24 hrs by MTT assay relative to control; type: functional
[20] = system: MIA PaCa-2; assay: Cytotoxicity against human MIA PaCa-2 cells assessed as reduction in cell viability at 100 uM incubated for 72 hrs by MTT assay relative to control; type: functional

For `Nc1nc(NCc2ccco2)nc2c1ncn2[C@@H]1O[C@H](CO)[C@@H](O)[C@H]1O`, which IC50 at 24 h [1] is on record?
Its IC50 at 24 h is over 100 µM.

What about the IC50 [2] of the same molecule?
The IC50 was over 100 µM.

What about the IC50 [3] of the same molecule?
The IC50 was over 100 µM.

And the IC50 [4]?
Its IC50 is over 100 µM.

What about the IC50 [5] of the same molecule?
Its IC50 is over 100 µM.

What about the IC50 [6] of the same molecule?
Its IC50 is over 100 µM.

And the IC50 [7]?
Its IC50 is over 100 µM.

What about the IC50 [8] of the same molecule?
Its IC50 is over 100 µM.

And the IC50 [9]?
Its IC50 is over 100 µM.

And the IC50 [10]?
Its IC50 is over 100 µM.

What about the IC50 [11] of the same molecule?
Its IC50 is over 100 µM.

And the IC50 [12]?
Its IC50 is over 100 µM.

What about the IC50 [13] of the same molecule?
The IC50 was over 100 µM.

What about the IC50 at 48 h [14] of the same molecule?
The IC50 at 48 h was over 100 µM.

What about the IC50 [15] of the same molecule?
Its IC50 is over 100 µM.

What about the IC50 [16] of the same molecule?
Its IC50 is over 100 µM.

What about the IC50 at 72 h [17] of the same molecule?
The IC50 at 72 h was over 100 µM.

What about the IC50 [18] of the same molecule?
Its IC50 is over 100 µM.

What does the source list for `Nc1nc(NCc2ccco2)c2ncn([C@@H]3O[C@H](CO)[C@@H](O)[C@H]3O)c2n1`?
IC50 at 24 h [1]: > 100 µM; IC50 [2]: > 100 µM; IC50 [3]: > 100 µM; IC50 [4]: > 100 µM; IC50 [5]: > 100 µM; IC50 [6]: > 100 µM; IC50 [7]: > 100 µM; IC50 [8]: > 100 µM; IC50 [9]: > 100 µM; IC50 [10]: > 100 µM; IC50 [11]: > 100 µM; IC50 [12]: > 100 µM; IC50 [13]: > 100 µM; IC50 at 48 h [14]: > 100 µM; IC50 [15]: > 100 µM; IC50 [16]: > 100 µM; IC50 at 72 h [17]: > 100 µM; IC50 [18]: > 100 µM

Which results are given for `OC[C@H]1O[C@@H](n2cnc3c(NCc4ccoc4)ncnc32)[C@H](O)[C@@H]1O`?
IC50 at 24 h [1]: 16 µM; IC50 [2]: 2.1 µM; IC50 [3]: 18.5 µM; IC50 [4]: 12 µM; IC50 [5]: > 100 µM; IC50 [6]: > 100 µM; Activity [19]: 40%; IC50 [7]: 1.4 µM; IC50 [8]: 1.8 µM; IC50 [9]: > 100 µM; IC50 [10]: 6.5 µM; IC50 [11]: > 100 µM; IC50 [12]: 3.3 µM; IC50 [13]: 2.2 µM; IC50 at 48 h [14]: 1 µM; IC50 [15]: > 100 µM; IC50 [16]: 13.1 µM; Activity [20]: ~90%; IC50 at 72 h [17]: 0.7 µM; IC50 [18]: 1.1 µM

With `OC[C@H]1O[C@@H](n2cnc3c(NCc4ccco4)ncnc32)C[C@@H]1O` as the molecule, how does the IC50 at 24 h [1] read?
Its IC50 at 24 h is over 100 µM.

And the IC50 [2]?
The IC50 was over 100 µM.

And the IC50 [3]?
The IC50 was over 100 µM.

And the IC50 [4]?
The IC50 was over 100 µM.

And the IC50 [5]?
The IC50 was over 100 µM.

And the IC50 [6]?
Its IC50 is over 100 µM.

What about the IC50 [7] of the same molecule?
Its IC50 is over 100 µM.

What about the IC50 [8] of the same molecule?
Its IC50 is over 100 µM.

What about the IC50 [9] of the same molecule?
Its IC50 is over 100 µM.

And the IC50 [10]?
The IC50 was over 100 µM.

And the IC50 [11]?
The IC50 was over 100 µM.

What about the IC50 [12] of the same molecule?
Its IC50 is over 100 µM.

And the IC50 [13]?
Its IC50 is over 100 µM.

What about the IC50 at 48 h [14] of the same molecule?
The IC50 at 48 h was over 100 µM.

What about the IC50 [15] of the same molecule?
Its IC50 is over 100 µM.

What about the IC50 [16] of the same molecule?
The IC50 was over 100 µM.

What about the IC50 at 72 h [17] of the same molecule?
Its IC50 at 72 h is over 100 µM.

And the IC50 [18]?
The IC50 was over 100 µM.

Source: ChEMBL document CHEMBL5625261, “Cytotoxic effects of kinetin riboside and its selected analogues on cancer cell lines” (Bioorg Med Chem Lett, 2024)
